Test results: patent US10590078B2, “Sodium channel blockers” (Daewoong Pharmaceutical Co., Ltd., priority 2015, dated 2020)

Biological target: human sodium ion channel 1.7 (hNav1.7) (Homo sapiens, UniProt Q15858)
Assay: Blocking effect against sodium ion channel Nav1.7, IonFlux16 auto patch clamp in hNav1.7 HEK293 cells
Format: cell-based
Conditions: hNav1.7 HEK293 cells; inhibition of peak current after 50 seconds treatment; eight concentrations; read-out: IC50

Sequence of human sodium ion channel 1.7 (hNav1.7) (Q15858 whole entry): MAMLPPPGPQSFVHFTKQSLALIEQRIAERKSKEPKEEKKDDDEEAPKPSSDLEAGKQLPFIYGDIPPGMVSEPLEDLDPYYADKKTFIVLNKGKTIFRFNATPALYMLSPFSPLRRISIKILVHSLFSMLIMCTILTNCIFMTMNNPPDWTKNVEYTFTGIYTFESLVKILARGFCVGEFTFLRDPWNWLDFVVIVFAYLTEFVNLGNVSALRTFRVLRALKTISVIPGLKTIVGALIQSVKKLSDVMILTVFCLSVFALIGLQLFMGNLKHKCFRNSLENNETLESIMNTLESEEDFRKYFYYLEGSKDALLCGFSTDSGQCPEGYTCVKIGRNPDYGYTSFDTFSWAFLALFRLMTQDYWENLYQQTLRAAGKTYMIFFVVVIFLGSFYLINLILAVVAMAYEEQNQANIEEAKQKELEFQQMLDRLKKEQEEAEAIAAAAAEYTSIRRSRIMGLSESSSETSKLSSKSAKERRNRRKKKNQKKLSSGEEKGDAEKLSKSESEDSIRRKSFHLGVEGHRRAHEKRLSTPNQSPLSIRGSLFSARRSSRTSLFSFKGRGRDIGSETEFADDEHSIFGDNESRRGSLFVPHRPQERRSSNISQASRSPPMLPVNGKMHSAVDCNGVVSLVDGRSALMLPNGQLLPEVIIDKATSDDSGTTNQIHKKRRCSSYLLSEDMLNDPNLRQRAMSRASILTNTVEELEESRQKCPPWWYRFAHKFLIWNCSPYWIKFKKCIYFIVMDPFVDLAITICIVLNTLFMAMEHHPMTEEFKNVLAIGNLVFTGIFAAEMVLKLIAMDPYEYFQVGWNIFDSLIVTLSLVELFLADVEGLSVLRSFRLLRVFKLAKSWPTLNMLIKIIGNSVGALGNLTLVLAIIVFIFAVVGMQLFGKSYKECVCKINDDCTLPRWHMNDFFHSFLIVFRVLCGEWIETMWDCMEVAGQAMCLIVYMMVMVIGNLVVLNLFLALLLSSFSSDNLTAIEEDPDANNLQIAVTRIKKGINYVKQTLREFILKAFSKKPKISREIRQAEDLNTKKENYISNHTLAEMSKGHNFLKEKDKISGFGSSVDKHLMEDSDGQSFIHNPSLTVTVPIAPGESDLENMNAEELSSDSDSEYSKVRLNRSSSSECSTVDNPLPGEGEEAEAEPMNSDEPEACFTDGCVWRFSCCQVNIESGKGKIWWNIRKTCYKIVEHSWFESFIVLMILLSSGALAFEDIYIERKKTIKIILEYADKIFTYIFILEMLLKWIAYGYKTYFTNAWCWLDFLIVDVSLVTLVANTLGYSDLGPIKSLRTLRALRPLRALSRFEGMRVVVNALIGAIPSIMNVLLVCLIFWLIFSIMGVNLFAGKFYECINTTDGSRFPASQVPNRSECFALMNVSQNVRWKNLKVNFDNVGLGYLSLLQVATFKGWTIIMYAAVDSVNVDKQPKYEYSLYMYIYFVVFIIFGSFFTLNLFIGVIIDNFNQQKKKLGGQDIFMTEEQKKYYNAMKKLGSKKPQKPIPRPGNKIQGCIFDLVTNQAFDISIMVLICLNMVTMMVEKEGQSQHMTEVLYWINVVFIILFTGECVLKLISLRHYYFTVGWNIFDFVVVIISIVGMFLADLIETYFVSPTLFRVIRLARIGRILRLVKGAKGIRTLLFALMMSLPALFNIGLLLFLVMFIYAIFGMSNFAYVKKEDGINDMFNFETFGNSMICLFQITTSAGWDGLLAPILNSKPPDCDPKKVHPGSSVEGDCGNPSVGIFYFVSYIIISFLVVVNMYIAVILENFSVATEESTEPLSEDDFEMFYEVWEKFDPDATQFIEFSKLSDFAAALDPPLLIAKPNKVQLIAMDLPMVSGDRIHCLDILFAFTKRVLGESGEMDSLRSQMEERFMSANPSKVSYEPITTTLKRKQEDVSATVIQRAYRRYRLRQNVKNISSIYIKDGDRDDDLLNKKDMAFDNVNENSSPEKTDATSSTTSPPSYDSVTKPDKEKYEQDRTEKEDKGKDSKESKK

SMILES | IC50
O=c1[nH]nc(-c2cc(Cl)c(-n3nc(-c4ccc(Cl)cc4F)c4cc(Cl)ccc43)cc2F)[nH]1 [Example 291, 5-(5-chloro-4-(5-chloro-3-(4-chloro-2-fluorophenyl)-1H-indazol-1-yl)-2-fluorophenyl)-2,4-dihydro-3H-1,2,4-triazol-3-one] | 10.8 µM
NC(=O)c1cc(Cl)c(-n2nc(-c3ccc(Cl)cc3F)c3cc(Cl)ccc32)cc1F [Example 292, 5-chloro-4-(5-chloro-3-(4-chloro-2-fluorophenyl)-1H-indazol-1-yl)-2-fluorobenzamide] | > 10 µM
CC(=O)NC(=O)c1cc(Cl)c(-n2nc(-c3ccc(Cl)cc3F)c3cc(Cl)ccc32)cc1F [Example 293, N-acetyl-5-chloro-4-(5-chloro-3-(4-chloro-2-fluorophenyl)-1H-indazol-1-yl)-2-fluorobenzamide] | > 10 µM
O=C(Nc1nccs1)c1cc(Cl)c(-n2nc(-c3ccc(Cl)cc3F)c3cc(Cl)ccc32)cc1F [Example 294, 5-chloro-4-(5-chloro-3-(4-chloro-2-fluorophenyl)-1H-indazol-1-yl)-2-fluoro-N-(thiazol-2-yl)benzamide] | > 10 µM
Cc1cnc(NC(=O)c2cc(Cl)c(-n3nc(-c4ccc(Cl)cc4F)c4cc(Cl)ccc43)cc2F)s1 [Example 295, 5-chloro-4-(5-chloro-3-(4-chloro-2-fluorophenyl)-1H-indazol-1-yl)-2-fluoro-N-(5-methylthiazol-2-yl)benzamide] | > 10 µM
CCOC(=O)c1cnc(NC(=O)c2cc(Cl)c(-n3nc(-c4ccc(Cl)cc4F)c4cc(Cl)ccc43)cc2F)s1 [Example 296, ethyl 2-(5-chloro-4-(5-chloro-3-(4-chloro-2-fluorophenyl)-1H-indazol-1-yl)-2-fluorobenzamido)thiazole-5-carboxylate] | > 10 µM
